According to US20240067693A1, “POLYPEPTIDES AND USES THEREOF” (MEDIMMUNE LIMITED, priority 2020, published 2024):
Numbered stars: 1 amine (or outer) side, 2 acyl side, 3 side chain; on linkers, the order of the positions; unused ones are H or OH. Bridge positions count the residues as written; N and C are the ends. Square brackets hold non-standard residues; d marks the D form. Side chains are listed from the residue outwards. Peptide text beside a SMILES is read from it. * marks the point of attachment. C18 diacid = O=C(O)CCCCCCCCCCCCCCCCC(=O)*; γGlu = O=C(O)[C@H](CCC(=O)[*:2])N[*:1]; Aib = CC(C)(N)C(=O)O

Columns and labels:
[1] = molecular target: T1, human amylin receptor (calcitonin receptor co-expressed with receptor activity modifying protein, RAMP3) (hAMYR3) (Homo sapiens, UniProt O60896+P30988); experiment: cAMP production in 1321N1 cells with stable recombinant expression of human amylin receptor (hAMYR3); format: cell-based; conditions: for Ratio (selectivity hAMYR vs hCTR, ratio of EC50 values at the two receptors): EC50 hCTR / EC50 hAMYR3; for EC50: cAMP, 1321N1 cells, assay buffer with 0.1% BSA, read-out: EC50 (pM) hAMYR3
T1 construct: expressed in transfected cells
T1 sequence (P30988 25-474): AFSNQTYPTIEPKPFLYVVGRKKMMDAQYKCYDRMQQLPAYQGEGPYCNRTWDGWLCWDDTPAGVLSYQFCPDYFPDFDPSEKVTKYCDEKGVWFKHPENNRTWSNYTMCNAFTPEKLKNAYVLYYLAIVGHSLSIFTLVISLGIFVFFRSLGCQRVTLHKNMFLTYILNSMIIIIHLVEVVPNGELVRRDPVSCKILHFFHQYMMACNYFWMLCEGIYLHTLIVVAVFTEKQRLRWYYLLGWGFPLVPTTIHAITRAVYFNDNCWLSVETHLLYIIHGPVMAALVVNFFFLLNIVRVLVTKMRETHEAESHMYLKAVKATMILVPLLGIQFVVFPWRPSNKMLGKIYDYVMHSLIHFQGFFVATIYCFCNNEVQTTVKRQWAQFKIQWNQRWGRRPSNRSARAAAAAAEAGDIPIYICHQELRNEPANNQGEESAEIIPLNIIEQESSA
T1 sequence (O60896 24-148 partner): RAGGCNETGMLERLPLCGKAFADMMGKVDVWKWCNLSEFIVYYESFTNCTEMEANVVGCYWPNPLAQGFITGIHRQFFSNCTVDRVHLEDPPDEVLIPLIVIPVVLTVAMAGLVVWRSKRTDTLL
Method in brief: (§1)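 Receptor-expressing cells (human receptors in 1321N1, rat receptors in HEK) incubated 30 min at room temperature with peptide in HBSS/HEPES pH 7.4, 0.1% BSA, 0.5 mM IBMX. cAMP read by HTRF; EC50 from 4-parameter fit as % of maximal amylin or calcitonin response.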

[2] = molecular target: T2, human calcitonin receptor (hCTR) (Homo sapiens, UniProt P30988); experiment: cAMP production in 1321N1 cells with stable recombinant expression of human calcitonin receptor (hCTR); format: cell-based; conditions: cAMP, 1321N1 cells, assay buffer with 0.1% BSA; read-out: EC50 (pM) hCTR
T2 construct: expressed in transfected cells
T2 sequence (P30988 25-474): T1 sequence (P30988 25-474)
Method in brief: as §1

Structure (SMILES)	Ratio (selectivity hAMYR vs hCTR, ratio of EC50 values at the two receptors) [1]	EC50 [1] [pM]	EC50 [2] [pM]
CC[C@H](C)[C@H](NC(=O)[C@@H]1CCCN1C(=O)CNC(=O)[C@H](Cc1ccccc1)NC(=O)[C@H](CC(N)=O)NC(=O)C(C)(C)NC(=O)[C@H](CO)NC(=O)[C@H](CO)NC(=O)[C@H](Cc1c[nH]cn1)NC(=O)[C@H](CO)NC(=O)[C@H](CC(C)C)NC(=O)[C@H](Cc1ccccc1)NC(=O)[C@H](CC(N)=O)NC(=O)[C@H](C)NC(=O)[C@H](CC(C)C)NC(=O)[C@H](CCCNC(=N)N)NC(=O)[C@H](CCC(N)=O)NC(=O)[C@@H](NC(=O)[C@H](C)NC(=O)[C@@H]1CSSC[C@H](NC(=O)[C@H](CCCCN)NC(=O)[C@@H](N)CCCCNC(=O)CC[C@H](NC(=O)CCCCCCCCCCCCCCCCC(=O)O)C(=O)O)C(=O)N[C@@H](CC(N)=O)C(=O)N[C@@H]([C@@H](C)O)C(=O)N[C@@H](C)C(=O)N[C@@H]([C@@H](C)O)C(=O)N1)[C@@H](C)O)C(=O)N[C@@H](CC(C)C)C(=O)N1CCC[C@H]1C(=O)N1CCC[C@H]1C(=O)N[C@H](C(=O)N1CCC[C@H]1C(=O)N[C@H](C(=O)NCC(=O)N[C@@H](CO)C(=O)N[C@@H](CC(N)=O)C(=O)N[C@H](C(=O)N[C@@H](Cc1ccc(O)cc1)C(N)=O)[C@@H](C)O)C(C)C)[C@@H](C)O [Peptide 53, K(γE-C18diacid)K[CNTATC]ATQRLANFLSHSS(Aib)NFGPILPPTPVGSNTY-amide] (H-K([γGlu-C18 diacid])KCNTATCATQRLANFLSHSS[Aib]NFGPILPPTPVGSNTY-NH2; disulfide 3-8; N-terminus assumed)	2	98	235
CC[C@H](C)[C@H](NC(=O)[C@@H]1CCCN1C(=O)CNC(=O)[C@H](Cc1ccccc1)NC(=O)[C@H](CC(N)=O)NC(=O)C(C)(C)NC(=O)[C@H](CO)NC(=O)[C@H](CO)NC(=O)[C@H](Cc1c[nH]cn1)NC(=O)[C@H](CO)NC(=O)[C@H](CC(C)C)NC(=O)[C@H](Cc1ccccc1)NC(=O)[C@H](CC(N)=O)NC(=O)[C@H](C)NC(=O)[C@H](CC(C)C)NC(=O)[C@H](CCCNC(=N)N)NC(=O)[C@H](CCC(N)=O)NC(=O)[C@@H](NC(=O)[C@H](C)NC(=O)[C@@H]1CSSC[C@H](NC(=O)[C@H](CCCCN)NC(=O)[C@@H](N)CCCCNC(=O)CC[C@H](NC(=O)CCCCCCCCCCCCCCCCC(=O)O)C(=O)O)C(=O)N[C@@H](CC(N)=O)C(=O)N[C@@H]([C@@H](C)O)C(=O)N[C@@H](C)C(=O)N[C@@H]([C@@H](C)O)C(=O)N1)[C@@H](C)O)C(=O)N[C@@H](CC(C)C)C(=O)N1CCC[C@H]1C(=O)N1CCC[C@H]1C(=O)N[C@H](C(=O)N[C@@H](CC(N)=O)C(=O)N[C@H](C(=O)N1CCC[C@H]1C(=O)N[C@@H](CO)C(=O)N[C@@H](CC(N)=O)C(=O)N[C@H](C(=O)N[C@@H](Cc1ccc(O)cc1)C(N)=O)[C@@H](C)O)C(C)C)[C@@H](C)O [Peptide 54, K(γE-C18diacid)K[CNTATC]ATQRLANFLSHSS(Aib)NFGPILPPTNVPSNTY-amide] (H-K([γGlu-C18 diacid])KCNTATCATQRLANFLSHSS[Aib]NFGPILPPTNVPSNTY-NH2; disulfide 3-8; N-terminus assumed)	0.2	7590	1510
CC[C@H](C)[C@H](NC(=O)[C@@H]1CCCN1C(=O)CNC(=O)[C@H](Cc1ccccc1)NC(=O)[C@H](CC(N)=O)NC(=O)C(C)(C)NC(=O)[C@H](CO)NC(=O)[C@H](CO)NC(=O)[C@H](Cc1c[nH]cn1)NC(=O)[C@H](CO)NC(=O)[C@H](CC(C)C)NC(=O)[C@H](Cc1ccccc1)NC(=O)[C@H](CC(N)=O)NC(=O)[C@H](C)NC(=O)[C@H](CC(C)C)NC(=O)[C@H](CCCNC(=N)N)NC(=O)[C@H](CCC(N)=O)NC(=O)[C@@H](NC(=O)[C@H](C)NC(=O)[C@@H]1CSSC[C@H](NC(=O)[C@H](CCCCN)NC(=O)[C@@H](N)CCCCNC(=O)CC[C@H](NC(=O)CCCCCCCCCCCCCCCCC(=O)O)C(=O)O)C(=O)N[C@@H](CC(N)=O)C(=O)N[C@@H]([C@@H](C)O)C(=O)N[C@@H](C)C(=O)N[C@@H]([C@@H](C)O)C(=O)N1)[C@@H](C)O)C(=O)N[C@@H](CC(C)C)C(=O)N1CCC[C@H]1C(=O)N1CCC[C@H]1C(=O)N[C@H](C(=O)N[C@@H](CC(N)=O)C(=O)N[C@H](C(=O)NCC(=O)N[C@@H](CO)C(=O)N1CCC[C@H]1C(=O)N[C@H](C(=O)N[C@@H](Cc1ccc(O)cc1)C(N)=O)[C@@H](C)O)C(C)C)[C@@H](C)O [Peptide 55, K(γE-C18diacid)K[CNTATC]ATQRLANFLSHSS(Aib)NFGPILPPTNVGSPTY-amide] (H-K([γGlu-C18 diacid])KCNTATCATQRLANFLSHSS[Aib]NFGPILPPTNVGSPTY-NH2; disulfide 3-8)	3	678	1870

The next compounds have a lower EC50 [1] than those just listed; values first:

Ratio (selectivity hAMYR vs hCTR, ratio of EC50 values at the two receptors) [1]	EC50 [1] [pM]	EC50 [2] [pM]	Structure (SMILES)
7	70	493	CC[C@H](C)[C@H](NC(=O)[C@@H]1CCCN1C(=O)CNC(=O)[C@H](Cc1ccccc1)NC(=O)[C@H](CC(N)=O)NC(=O)C(C)(C)NC(=O)[C@H](CO)NC(=O)[C@H](CO)NC(=O)[C@H](Cc1c[nH]cn1)NC(=O)[C@@H](NC(=O)[C@H](CC(C)C)NC(=O)[C@H](Cc1ccccc1)NC(=O)[C@H](CC(N)=O)NC(=O)[C@H](C)NC(=O)[C@H](CC(C)C)NC(=O)[C@H](CCCNC(=N)N)NC(=O)[C@H](CCC(N)=O)NC(=O)[C@@H](NC(=O)[C@H](C)NC(=O)[C@@H]1CSSC[C@H](NC(=O)[C@@H](N)CCCCNC(=O)CC[C@H](NC(=O)CCCCCCCCCCCCCCCCC(=O)O)C(=O)O)C(=O)N[C@@H](CC(N)=O)C(=O)N[C@@H]([C@@H](C)O)C(=O)N[C@@H](C)C(=O)N[C@@H]([C@@H](C)O)C(=O)N1)[C@@H](C)O)C(C)C)C(=O)N[C@@H](CC(C)C)C(=O)N1CCC[C@H]1C(=O)N1CCC[C@H]1C(=O)N[C@H](C(=O)N[C@@H](CC(N)=O)C(=O)N[C@H](C(=O)NCC(=O)N[C@@H](CO)C(=O)N[C@@H](CC(N)=O)C(=O)N[C@H](C(=O)N[C@@H](Cc1ccc(O)cc1)C(N)=O)[C@@H](C)O)C(C)C)[C@@H](C)O [Peptide 56, K(γE-C18diacid)[CNTATC]ATQRLANFLVHSS(Aib)NFGPILPPTNVGSNTY-amide] (H-K([γGlu-C18 diacid])CNTATCATQRLANFLVHSS[Aib]NFGPILPPTNVGSNTY-NH2; disulfide 2-7; N-terminus assumed)
1	71	65	CC[C@H](C)[C@H](NC(=O)[C@@H]1CCCN1C(=O)CNC(=O)[C@H](Cc1ccccc1)NC(=O)[C@H](CC(N)=O)NC(=O)C(C)(C)NC(=O)[C@H](CO)NC(=O)[C@H](CO)NC(=O)[C@H](Cc1c[nH]cn1)NC(=O)[C@@H](NC(=O)[C@H](CC(C)C)NC(=O)[C@H](Cc1ccccc1)NC(=O)[C@H](CC(N)=O)NC(=O)[C@H](C)NC(=O)[C@H](CC(C)C)NC(=O)[C@H](CCCNC(=N)N)NC(=O)[C@H](CCC(N)=O)NC(=O)[C@@H](NC(=O)[C@H](C)NC(=O)[C@@H]1CSSC[C@H](NC(=O)[C@H](CCCCN)NC(=O)[C@@H](N)CCCCNC(=O)CC[C@H](NC(=O)CCCCCCCCCCCCCCCCC(=O)O)C(=O)O)C(=O)N[C@@H](CC(N)=O)C(=O)N[C@@H]([C@@H](C)O)C(=O)N[C@@H](C)C(=O)N[C@@H]([C@@H](C)O)C(=O)N1)[C@@H](C)O)C(C)C)C(=O)N[C@@H](CC(C)C)C(=O)N1CCC[C@H]1C(=O)N1CCC[C@H]1C(=O)N[C@H](C(=O)N[C@@H](CC(N)=O)C(=O)N[C@H](C(=O)NCC(=O)N[C@@H](CO)C(=O)N[C@@H](CC(N)=O)C(=O)N[C@H](C(=O)N1CCC[C@H]1C(N)=O)[C@@H](C)O)C(C)C)[C@@H](C)O [Peptide 58, K(γE-C18diacid)K[CNTATC]ATQRLANFLVHSS(Aib)NFGPILPPTNVGSNTP-amide] (H-K([γGlu-C18 diacid])KCNTATCATQRLANFLVHSS[Aib]NFGPILPPTNVGSNTP-NH2; disulfide 3-8)
